Data on two molecules can be found in patent US20250288549A1, “SYNTHETIC PROCESS FOR PRODUCTION OF LIPOXIN B4 AND ANALOGUES THEREOF” (UNIVERSITY HEALTH NETWORK, priority 2022, published 2025).

Entries after “also recorded” stand apart in the source; their conditions may differ.

One data set relates to HT22 neuronal cells. As to the kind of experiment: HT22 glutamate injury model, cell viability by XTT assay. Conditions: for neuroprotection in glutamate injury model: 1 μM LXB4, glutamate challenge. It is filed as cell-based. The source says: In order to confirm the bioactivity of the synthesized material, its neuroprotective effects were confirmed in a neuronal injury model. Recent clinical failures of a variety of neuroprotection trials have intensified interest in new treatment strategies. Evidence is accumulating that lipoxins and other lipid mediators can have an important impact on neuroinflammation and neuronal survival.[13,38] […] Yet the lack of efficient syntheses of LXB4 coupled with the expensive cost from commercial sources (USD$806/100 μg, Cayman Chemical)[36] have made this new mechanism of action challenging to modify and study. In this regard the presently described synthetic route towards LXB4, and analogues thereof, provide a benefit for improving production and/or reducing cost of production of LXB4 and analogues thereof. Therefore, the neuroprotective activity of newly synthesized LXB4 was compared it against the commercial source to confirm its activity.[36] For this assay, HT22 neuronal cells were pre-treated with LXB4 from both sources (commercial vs. in-house), followed by a glutamate challenge to induce excitotoxic cell death.[14] Cell viability was then measured using an XTT assay.
HT22 cells (SCC129, EMD Millipore) were grown on 100-mm tissue culture dishes (83.3902.300, Sarstedt) and maintained in high glucose DMEM (Sigma, D5796-500ML) supplemented with 10% fetal bovine serum (080-150, Wisent) and 1% Penstrep (15140122, Gibco) at 37° C. in a 5% CO2 atmosphere incubator (67/340,1045, CellXpert C170, Eppendorf). Cells used for experiments were maintained at a <80% confluency and <25 passages, and were dissociated using TrypIE (12604013, Gibco).
HT22 cells were seeded at 4×10^3 cells in 100 μL of the high glucose DMEM+10% fetal bovine serum+1% Penstrep media on replicate wells of 96-well plates (83.3924.300, Sarstedt) for 20 hours at 37° C. in a 5% CO2 atmosphere humidified incubator. Cells were then pretreated with 5 μL of the indicated LXB4 concentration, or vehicle, one hour prior to addition of 3 mM glutamate stressor. Cells were exposed for 13 hours, then evaluated for cell viability using an XTT assay, according to the manufacturer's instructions (11465015001, Roche). The resulting absorbance values were read in a BMG CLARIOstar microplate reader under 490 nm excitation following 2 hours of XTT incubation and analyzed using Graphpad Prism 9 for ANOVA analyses and curve fitting.

A short description of data set [1]: Storage and handling stability of LXB4. Format: physicochemical. As for the experimental part:
Instability of LXB4 presented a substantial obstacle its synthesis and purification. […] Telescoping the final transformations from 27 to 2, preventing light exposure, and storing all crude intermediates in a methanol solution were required to obtain LXB4 of sufficient purity. LXB4 could be stored as a solution in methanol or ethanol at −20° C. for several weeks or at −80° C. for one to three months before substantial degradation was observed.
Dimethylethoxysilane (560 uL, 4.03 mmol, 8.0 equiv.) was added in one portion, followed by dropwise addition of Karstedt's catalyst (platinum(0)-1,3-divinyl-1,1,3,3,-tetramethyldisoloxane complex, 2% Pt) (115 μL, 0.010 mmol, 2 mol %). The round bottom flask was covered with foil to prevent UV exposure and the solution was stirred overnight at room temperature. […] The crude reaction mixture was filtered through a silica plug, which was washed with Et2O, and the collected filtrate was dried under vacuum to afford a yellow-brown oil. This oil was redissolved in anhydrous THF (4.4 mL) under argon. The solution was again wrapped in foil, and a solution of TBAF in THF (1.0 M, 4.0 mL, 8.0 equiv.) was added dropwise. The reaction was stirred at room temperature for 20 minutes. […] Another […] was added dropwise. […] The reaction was quenched by the addition of phosphate buffer (pH 7) and water and extracted with diethyl ether. The combined organic phase was dried over Na2SO4 and concentrated in vacuo. The crude oil was immediately redissolved in THF/H2O (3:1, 2.5 mL) and treated with LiOH (12.1 mg, 0.50 mmol, 1.0 equiv.) mmol. The resulting solution was stirred at room temperature in a round-bottom flask wrapped in aluminium foil until TLC indicated complete conversion. The reaction mixture was flash filtered through celite to remove any residual LiOH solid and washed with THF. The remaining solvent was removed in vacuo to afford a sticky yellow residue, which was immediately redissolved in MeOH. […] This material was purified by reverse phase HPLC (XBridge BEH OBD Prep column, 130A, 5 μM, 30 mm×150 mm) using a mobile phase of H2O+0.05% NH4OH (A) and acetonitrile+0.05% NH4OH (B) and a gradient elution of 97:3 A:B to 67:33 A:B. After lyophilization, we obtained 98.7 mg of LXB4 for a yield of 56% over three steps. LXB4 should be stored on dry ice until injected into the HPLC. In a solution in methanol at room temperature, formation of impurities which are extremely difficult to separate by HPLC occurred in 1-2 hours.

The subject of a further data set is neuronal cell types. As to conditions: cited from earlier work.
Data set [2] has as its system retinal ganglion cell death. As to conditions: acute and chronic models of retinal ganglion cell death, glaucoma; cited from earlier work.

Turning to `CCCCC[C@H](O)[C@H](O)/C=C/C=C/C=C\C=C\[C@@H](O)CCCC(=O)O` [LXB4, (5S,6E,8Z,10E,12E,14R,15S)-5,14,15-trihydroxyicosa-6,8,10,12-tetraenoic acid], the “neuroprotection in glutamate injury model” value in the data set on HT22 neuronal cells (n=8, p<0.05) is reported as “significantly neuroprotective”; with HT22 neuronal cells (n=8, p<0.05, listed as synthesized LXB4) it was “significant protection”. In the data set on HT22 neuronal cells (Mus musculus, HT-22, glutamate injury, dose response curve, n=8), this molecule came in with a half-maximal effective concentration (EC50) of 293 nM. Moreover, in data set [1], the “stability to air and light” value is “highly unstable”. Also, the “stability in HPLC buffer” value in data set [1] (HPLC buffer) is recorded as “stable in HPLC buffer for several hours”. In addition, the “stability stored as a solid” value in data set [1] (crude or purified material, room temperature) was “rapid degradation”; in data set [1] (low temperature (−20° C.)), “rapid degradation”. Moreover, the “time to formation of impurities” value in data set [1] (solution in methanol at room temperature) is 1 to 2 h. In addition, the “storage time before substantial degradation” value in data set [1] (solution in methanol or ethanol at −20° C.) is listed as “several weeks”; in data set [1] (solution in methanol or ethanol at −80° C.) it was “one to three”. Also, in the data set on neuronal cell types (established neuronal injury model, also primary cortical, hippocampal and retinal ganglion cells), the “potency relative to LXA4” value is on record as 20 fold. In the data set with neuronal cell types (variety of neuronal cell types, acute and chronic injury models of glaucoma), the “potency and efficacy in direct neuroprotection compared with LXA4” value was “significantly more potent and efficacious than LXA4”. The efficacy in vivo result in data set [2] is on record as “efficacy in vivo”.

With `CCCCC[C@H](O)[C@H](O)/C=C/C=C/C=C\C=C\[C@@H](O)CCCC(=O)O` [commercial LXB4, reference compound], in the data set with HT22 neuronal cells (n=8, p<0.05), the “neuroprotection in glutamate injury model” value is reported as “significantly neuroprotective; also recorded: significant protection”.

A word on the EC50: it is the concentration giving half of the maximal effect.
